Columns and labels:
[1] = test system: α-galactosidase (α-GAL), free (unencapsulated); assay: Enzyme activity of free α-GAL, Michaelis-Menten/Lineweaver-Burk plot with Gal-AMC; assay type: biochemical; conditions: substrate Gal-AMC, PBS, 37° C., AMC fluorescence Ex/Em=350 nm/450 nm
Method: Enzyme activity was evaluated with respect to free α-GAL and encapsulated α-GAL, respectively. The enzyme activity of α-GAL was checked by the reaction with a substrate, α-galactosyl-β-(7-amide-4-methyl coumarin) (also referred to as “Gal-AMC”) as shown in FIG. 19B. Gal-AMC is decomposed by the enzyme activity of α-GAL to produce 7-amino-4-methyl coumarin (also referred to as “AMC”), which emits fluorescence (Ex/Em=350 nm/450 nm).
More specifically, first, PBS solutions of Gal-AMC, free α-GAL, and encapsulated α-GAL were each placed in a thermostatic chamber and allowed to stand still at 37° C. Thereafter, the Gal-AMC solution was mixed with the free α-GAL or encapsulated α-GAL solution. From the solution mixture, an aliquot (predetermined amount) was taken and immediately poured to a 96 well plate (TECAN). The plate was placed in a multiplate reader kept at 37° C. in advance and fluorescence intensity was measured periodically for a predetermined time.
The enzyme activity was evaluated by preparing the Michaelis-Menten plot and Lineweaver-Burk plot. At this time, using a calibration curve previously prepared by using an AMS standard solution, a change of fluorescence intensity was converted into the production rate of a product. In this manner, a reaction rate V was obtained. Measurement was performed by changing the substrate concentration [S] variously. […]

[2] = test system: α-galactosidase (α-GAL), encapsulated in PICsome; assay: Enzyme activity of α-GAL encapsulated in PICsome, Michaelis-Menten/Lineweaver-Burk plot with Gal-AMC; assay type: biochemical; conditions: substrate Gal-AMC, PBS, 37° C., AMC fluorescence Ex/Em=350 nm/450 nm
Method: In the same manner as in Section 5 of Example 1, a solution containing empty PICsomes was prepared. Thereafter, 11.4 mg of α-galactosidase (hereinafter referred to as “α-GAL”) was dissolved in 5.7 mL of a 10 mM phosphate buffer (PB, pH 7.4, 0 mM NaCl) to prepare a 2 mg/mL α-GAL solution.
An aliquot (1 mL) was taken from the 2 mg/mL α-GAL solution and mixed with 1 mL of the solution containing empty PICsomes. The solution mixture was stirred by a Vortex mixer for 2 minutes (2000 rpm). Thereafter, to the solution, a PB solution (5.6 mL) containing a water soluble condensing agent, EDC (10 mg/mL) was added. The mixture was allowed to stand still overnight to crosslink a polyion complex. […] A solution of fluorescence labeled α-GAL was prepared in the same manner as above.
Enzyme activity was evaluated with respect to free α-GAL and encapsulated α-GAL, respectively. […] Gal-AMC is decomposed by the enzyme activity of α-GAL to produce 7-amino-4-methyl coumarin (also referred to as “AMC”), which emits fluorescence (Ex/Em=350 nm/450 nm).
More specifically, first, PBS solutions of Gal-AMC, free α-GAL, and encapsulated α-GAL were each placed in a thermostatic chamber and allowed to stand still at 37° C. […] The plate was placed in a multiplate reader kept at 37° C. in advance and fluorescence intensity was measured periodically for a predetermined time. […]

Cc1cc(=O)oc2cc(N[C@H]3O[C@H](CO)[C@H](O)[C@H](O)[C@H]3O)ccc12 [Gal-AMC, α-galactosyl-β-(7-amide-4-methylcoumarin)]
Km [1]: 180 µM
Km [2]: 190 µM

Source: patent publication US11096991B2, “Nanoreactor using polyion complex polymersomes, and method for producing same” (THE UNIVERSITY OF TOKYO, priority 2015, dated 2021)
